The target in one assay is T1, TRPV4 (Homo sapiens, UniProt Q9HBA0).
T1 construct: host or cells: HEK 293T (transient transfection)
Nature of the assay: Whole-cell patch-clamp, GSK101-activated TRPV4 current in transfected HEK 293T cells. Format: cell-based. How it is done:
(§1) Next, we examined the impact of alpha-mangostin on other TRP channels. TRPV4- and TRPA1 trasfected HEK 293T were activated using 300 nM GSK-1016790A (GSK101) and 100 µM allyl isothiocyanate (AITC), respectively. […] The dose–response curves were obtained by applying various concentrations of alpha-mangostin (Figure 2C).
(§2) Figure 2 Alpha-mangostin (α-MG) inhibited the TRPV3 current more effectively than other TRP channels. (A) Representative I–V curves from whole-cell recordings illustrate the inhibitory effect of 0.3 µM alpha-mangostin on TRPV4 and TRPA1 channels (GSK101: GSK-1016790A, a TRPV4 agonist; RR: ruthenium red, a TRP inhibitor; AITC: allyl isothiocyanate, a TRPA1 agonist; A967: A-967079, a TRPA1 inhibitor). Currents were elicited with ramp pulses from −100 to +100 mV over 1 s, which were repetitively applied every 20 s; the holding potential was set at 0 mV. (B) Summary of the inhibition percentage after 0.3 µM alpha-mangostin treatment at −100 mV. […]
(§3) In the whole-cell configuration, voltage ramps from −100 to +100 mV over 1 s were applied every 20 s and the holding potential was set at 0 mV. Sampling at 10 kHz and low-pass filtering at 5 kHz (w-c) were applied for all recorded currents. Recorded data were analyzed using Clampfit ver. […]

In a further assay the target is T2, TRPA1 (Homo sapiens, UniProt O75762).
T2 construct: host or cells: HEK 293T (transient transfection)
T2 sequence (O75762 whole entry, species assumed): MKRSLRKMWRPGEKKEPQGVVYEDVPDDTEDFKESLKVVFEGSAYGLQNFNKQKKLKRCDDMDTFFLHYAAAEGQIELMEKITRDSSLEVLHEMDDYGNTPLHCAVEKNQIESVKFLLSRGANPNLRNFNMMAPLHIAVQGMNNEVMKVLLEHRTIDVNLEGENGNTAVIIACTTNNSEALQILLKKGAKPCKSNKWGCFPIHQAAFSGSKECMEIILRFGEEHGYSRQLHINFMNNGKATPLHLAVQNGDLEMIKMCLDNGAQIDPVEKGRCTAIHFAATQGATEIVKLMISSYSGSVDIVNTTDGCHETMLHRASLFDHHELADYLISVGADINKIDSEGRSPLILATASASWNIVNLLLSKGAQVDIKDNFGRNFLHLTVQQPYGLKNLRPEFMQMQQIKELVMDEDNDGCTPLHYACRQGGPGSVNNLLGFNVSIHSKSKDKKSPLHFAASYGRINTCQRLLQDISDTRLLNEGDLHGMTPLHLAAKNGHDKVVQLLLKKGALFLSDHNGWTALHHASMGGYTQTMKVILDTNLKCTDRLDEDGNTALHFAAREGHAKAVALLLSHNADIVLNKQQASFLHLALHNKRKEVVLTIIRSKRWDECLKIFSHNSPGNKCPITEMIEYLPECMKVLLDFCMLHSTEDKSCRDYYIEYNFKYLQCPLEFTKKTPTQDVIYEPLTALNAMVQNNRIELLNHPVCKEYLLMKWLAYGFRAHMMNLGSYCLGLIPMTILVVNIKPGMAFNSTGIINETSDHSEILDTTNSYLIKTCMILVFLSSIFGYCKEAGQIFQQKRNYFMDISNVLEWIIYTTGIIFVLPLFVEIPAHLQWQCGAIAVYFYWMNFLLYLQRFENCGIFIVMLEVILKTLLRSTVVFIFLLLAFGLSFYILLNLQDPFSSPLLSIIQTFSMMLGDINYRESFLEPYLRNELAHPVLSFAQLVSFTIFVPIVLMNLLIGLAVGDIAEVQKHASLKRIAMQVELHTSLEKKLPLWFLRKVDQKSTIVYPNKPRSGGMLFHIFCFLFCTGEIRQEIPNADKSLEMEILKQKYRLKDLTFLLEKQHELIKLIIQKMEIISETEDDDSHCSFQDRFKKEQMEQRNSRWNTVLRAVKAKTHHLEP
Nature of the assay: Whole-cell patch-clamp, AITC-activated TRPA1 current in transfected HEK 293T cells. Type of assay: cell-based. Conditions: 100 µM AITC. As for the experimental part: as §1, §2, §3
Background: The patch-clamp technique gives a direct electrical read-out from membranes.

Molecules are shown by their SMILES.

T1 sequence (Q9HBA0 whole entry, species assumed): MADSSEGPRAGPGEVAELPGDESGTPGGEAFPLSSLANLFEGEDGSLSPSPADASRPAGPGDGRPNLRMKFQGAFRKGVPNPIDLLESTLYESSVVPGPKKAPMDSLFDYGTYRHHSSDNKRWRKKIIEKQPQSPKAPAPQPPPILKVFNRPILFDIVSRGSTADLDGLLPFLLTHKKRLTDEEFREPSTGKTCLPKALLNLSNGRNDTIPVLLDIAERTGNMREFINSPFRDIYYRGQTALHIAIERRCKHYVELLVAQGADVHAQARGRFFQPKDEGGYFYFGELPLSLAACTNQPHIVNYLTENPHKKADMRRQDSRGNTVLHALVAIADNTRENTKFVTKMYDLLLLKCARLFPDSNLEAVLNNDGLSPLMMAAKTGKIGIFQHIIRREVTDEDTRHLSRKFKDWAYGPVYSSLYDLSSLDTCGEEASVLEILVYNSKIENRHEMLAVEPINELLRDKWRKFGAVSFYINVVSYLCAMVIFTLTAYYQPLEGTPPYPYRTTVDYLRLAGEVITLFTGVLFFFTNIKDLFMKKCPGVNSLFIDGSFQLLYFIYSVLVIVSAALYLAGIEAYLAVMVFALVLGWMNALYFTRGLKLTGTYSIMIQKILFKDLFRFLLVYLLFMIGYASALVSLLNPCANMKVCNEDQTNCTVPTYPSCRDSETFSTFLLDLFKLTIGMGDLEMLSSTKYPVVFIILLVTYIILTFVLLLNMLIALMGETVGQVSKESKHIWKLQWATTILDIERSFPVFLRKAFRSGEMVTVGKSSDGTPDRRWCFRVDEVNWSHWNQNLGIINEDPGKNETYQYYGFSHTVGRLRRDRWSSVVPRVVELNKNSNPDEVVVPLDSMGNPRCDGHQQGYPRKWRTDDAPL

The inhibition is the share of the control response that was lost under treatment. One may read the IC50 as the concentration that inhibits the measured activity by half. In the case of `COc1c(O)cc2oc3cc(O)c(CC=C(C)C)c(O)c3c(=O)c2c1CC=C(C)C` [Alpha-mangostin], the inhibition at 0.3 µM on TRPV4 (HEK-293T, 0.3 µM, 300 nM GSK101, −100 mV, read-out: Inhibition percentage of TRPV4 current) turned out to be 16.1%; on TRPA1 (HEK-293T, 0.3 µM, −100 mV, read-out: Inhibition percentage of TRPA1 current), 24.8%. The IC50 on TRPV4 (transfected HEK 293T, 300 nM GSK101, read-out: IC50, inhibition of TRPV4 current) stood at 8.47 ± 1.72 µM; on TRPA1 (transfected HEK 293T, read-out: IC50, inhibition of TRPA1 current), 5.09 ± 2.21 µM.

The values above are taken from paper PMC10455244, “Alpha-Mangostin: A Potent Inhibitor of TRPV3 and Pro-Inflammatory Cytokine Secretion in Keratinocytes” (International Journal of Molecular Sciences, 2023).
